Test results as given in patent publication US6617122B1, “Process for identifying modulators of ABC1 activity” (Xenon Genetics, Inc., priority 1999, dated 2003).

Columns and labels:
ABC1 [1] = details: cited from earlier work
ABC1 [2] = biological target: ABC1 (Homo sapiens, UniProt O95477); details: cited from earlier work
cholesterol efflux = details: cited from earlier work
ABC1 mRNA = ABC1 mRNA upon cholesterol loading; format: cell-based

ABC1 (Homo sapiens, UniProt O95477), sequence (O95477 whole entry): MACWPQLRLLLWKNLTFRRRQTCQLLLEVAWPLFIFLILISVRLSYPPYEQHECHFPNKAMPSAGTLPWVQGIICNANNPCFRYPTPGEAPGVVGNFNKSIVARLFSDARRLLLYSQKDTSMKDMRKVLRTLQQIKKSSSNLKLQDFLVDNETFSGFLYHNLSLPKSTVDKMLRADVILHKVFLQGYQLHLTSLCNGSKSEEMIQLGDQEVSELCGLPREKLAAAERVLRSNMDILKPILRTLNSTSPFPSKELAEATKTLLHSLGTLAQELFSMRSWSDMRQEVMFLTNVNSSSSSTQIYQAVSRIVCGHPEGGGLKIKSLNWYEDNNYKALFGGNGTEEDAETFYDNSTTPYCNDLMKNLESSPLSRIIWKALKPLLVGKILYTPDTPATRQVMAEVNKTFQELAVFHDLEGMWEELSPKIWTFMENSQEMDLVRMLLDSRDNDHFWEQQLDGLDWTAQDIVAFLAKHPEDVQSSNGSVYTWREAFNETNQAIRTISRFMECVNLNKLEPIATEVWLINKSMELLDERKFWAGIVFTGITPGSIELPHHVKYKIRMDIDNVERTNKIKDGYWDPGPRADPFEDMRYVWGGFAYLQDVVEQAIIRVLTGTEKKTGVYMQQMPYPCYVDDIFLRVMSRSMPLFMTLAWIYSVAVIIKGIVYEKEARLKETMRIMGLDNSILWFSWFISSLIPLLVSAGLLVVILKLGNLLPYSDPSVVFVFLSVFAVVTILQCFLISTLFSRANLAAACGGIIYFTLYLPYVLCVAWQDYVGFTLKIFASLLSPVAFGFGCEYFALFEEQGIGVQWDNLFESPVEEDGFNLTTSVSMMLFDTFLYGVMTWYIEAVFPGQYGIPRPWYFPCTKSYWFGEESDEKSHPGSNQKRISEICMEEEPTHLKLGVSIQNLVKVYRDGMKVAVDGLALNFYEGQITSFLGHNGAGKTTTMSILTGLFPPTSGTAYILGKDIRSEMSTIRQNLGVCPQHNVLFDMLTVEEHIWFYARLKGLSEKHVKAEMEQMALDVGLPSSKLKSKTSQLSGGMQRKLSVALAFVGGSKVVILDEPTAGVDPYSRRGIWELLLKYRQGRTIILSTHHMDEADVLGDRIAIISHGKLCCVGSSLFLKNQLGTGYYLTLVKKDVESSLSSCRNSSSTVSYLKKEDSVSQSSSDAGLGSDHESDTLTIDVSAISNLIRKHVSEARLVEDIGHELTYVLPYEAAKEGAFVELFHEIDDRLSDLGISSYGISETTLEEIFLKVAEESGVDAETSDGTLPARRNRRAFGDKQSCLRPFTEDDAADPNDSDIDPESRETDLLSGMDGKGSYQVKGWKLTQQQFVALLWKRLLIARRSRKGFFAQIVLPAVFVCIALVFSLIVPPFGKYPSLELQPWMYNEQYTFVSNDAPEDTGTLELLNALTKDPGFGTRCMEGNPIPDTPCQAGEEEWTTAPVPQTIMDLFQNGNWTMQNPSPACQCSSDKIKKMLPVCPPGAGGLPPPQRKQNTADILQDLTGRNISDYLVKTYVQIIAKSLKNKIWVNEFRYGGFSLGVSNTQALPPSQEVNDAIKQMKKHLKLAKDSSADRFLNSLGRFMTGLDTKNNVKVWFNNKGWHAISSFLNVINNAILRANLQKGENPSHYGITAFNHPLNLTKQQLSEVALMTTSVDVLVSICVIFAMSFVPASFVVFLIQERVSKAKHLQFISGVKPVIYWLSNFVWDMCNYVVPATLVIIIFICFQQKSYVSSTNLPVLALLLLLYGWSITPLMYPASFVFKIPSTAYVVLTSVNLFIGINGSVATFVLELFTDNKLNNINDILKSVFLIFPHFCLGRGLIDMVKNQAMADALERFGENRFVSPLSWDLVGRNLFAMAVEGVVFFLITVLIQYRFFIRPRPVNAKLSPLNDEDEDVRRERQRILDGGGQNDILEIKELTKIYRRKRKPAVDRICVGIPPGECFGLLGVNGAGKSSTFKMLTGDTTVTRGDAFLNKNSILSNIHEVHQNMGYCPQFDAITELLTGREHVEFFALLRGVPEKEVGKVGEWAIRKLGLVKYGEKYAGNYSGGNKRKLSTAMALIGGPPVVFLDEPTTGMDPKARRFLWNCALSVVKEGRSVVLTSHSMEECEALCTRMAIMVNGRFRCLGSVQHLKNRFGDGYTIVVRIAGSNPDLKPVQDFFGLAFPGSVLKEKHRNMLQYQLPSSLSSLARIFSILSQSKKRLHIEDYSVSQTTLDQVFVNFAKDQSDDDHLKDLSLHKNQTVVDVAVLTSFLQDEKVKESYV

| Structure (SMILES) | inhibition of ABC1 (ABC1 [1]) | upregulation of ABC1 expression or biological activity (ABC1 [2]) | other results |
| --- | --- | --- | --- |
| O=C(O)c1ccccc1Nc1ccccc1 [diphenylamine-2-carbonic acid] | inhibit | – | – |
| O=C1OC(c2ccc(O)c(S(=O)(=O)O)c2)(c2ccc(O)c(S(=O)(=O)O)c2)c2c(Br)c(Br)c(Br)c(Br)c21 [sulfobromophthalein] | inhibit | – | – |
| C=C1[C@@H](O)[C@@H]2O[C@]3(CC[C@H](/C=C/[C@@H](C)[C@@H]4CC(C)=C[C@@]5(O[C@H](C[C@@](C)(O)C(=O)O)CC[C@H]5O)O4)O3)CC[C@H]2O[C@@H]1[C@@H](O)C[C@H](C)[C@H]1O[C@@]2(CCCCO2)CC[C@H]1C [okadaic acid] | – | upregulate | – |
| COc1ccc(Cl)cc1C(=O)NCCc1ccc(S(=O)(=O)NC(=O)NC2CCCCC2)cc1 [glibenclamide] | inhibit | – | – |
| O=S(=O)(O)c1cc(N=C=S)ccc1C=Cc1ccc(N=C=S)cc1S(=O)(=O)O [DIDS] | inhibit | – | – |
| O=C(O)c1ccccc1Nc1cccc(C(F)(F)F)c1 [flufenamic acid] | inhibit | – | – |
| C[C@H]1CCC/C=C/[C@@H]2C[C@H](O)C[C@H]2[C@H](O)/C=C/C(=O)O1 [Brefeldin] | – | – | cholesterol efflux (cholesterol efflux): significantly inhibits cholesterol efflux |
| CC(C)Cn1c(=O)n(C)c(=O)c2[nH]cnc21 [IBMX1] | – | upregulate | – |
| CC(C)CCC[C@@H](C)[C@H]1CC[C@H]2[C@@H]3CC=C4C[C@@H](O)CC[C@]4(C)[C@H]3CC[C@]12C [cholesterol] | – | – | increase of ABC1 mRNA (ABC1 mRNA): approximately 8 fold |
| [O]=[V]([O-])([O-])[O-] [vanadate] | – | upregulate | – |
